Data: patent US10329235B2, “System and method for producing 1,4-cyclohexanedimethanol and 1,4- cyclohexanedicarboxylic acid from terephthalic acid” (ClearWaterBay CHDM Technology Limited, priority 2017, dated 2019)

Columns and labels:
[1] = Dissolution of TPA and CHDA in water in stirred autoclave (Examples 1-3); format: physicochemical; details: Examples 1-3: 1.7-1.9 wt % TPA, 28.1-48.2 wt % CHDA, 50-70 wt % water, 170-190 °C, 10 MPa, 15 minutes
Procedure: These examples are provided to highlight and validate the use of the method based on the dissolution chart for setting solvent and recirculation flows. For each of these examples, a slurry was prepared in a stirred autoclave, by mixing pre-determined amounts of water, TPA in powder form, and CHDA (22% trans) in powder form. The autoclave was then pressurized to 10 MPa using nitrogen gas and the temperature was then raised to the pre-determined level. Samples were drawn after 15 minutes of operation at this temperature level and analyzed to determine the compositions of TPA and CHDA. The predetermined feed mixture compositions and the pre-determined temperature levels for these experiments are shown in Table 1 below. Each pre-determined feed mixture composition is chosen such that it very closely corresponds to water/TPA and recirculation/TPA flow ratios that may be used in actual operation according to the preferred values from FIG. 6.

[2] = Solubility of TPA in water; format: physicochemical
From the text: Based on this, it is clearly evident that it will be beneficial to have processes for production of CHDM and CHDA directly from TPA without going through an intermediate TPA derivative. As noted initially, the main hurdle for such processes is getting TPA into the liquid phase.

Row | SMILES | Dissolution in water/TPA/CHDA mixture [1] | TPA Solubility ([2]; 150 °C) | TPA Solubility ([2]; 200 °C) | TPA Solubility ([2]; 250 °C)
1 | O=C(O)c1ccc(C(=O)O)cc1 [TPA, terephthalic acid] | completely dissolved | 0.0022 wt fraction | 0.016 wt fraction | 0.11 wt fraction
2 | O=C(O)C1CCC(C(=O)O)CC1 (centres unmarked) [CHDA, 1,4-cyclohexanedicarboxylic acid] | completely dissolved |  |  | 
